Data set [1] relates to Mycobacterium tuberculosis H37 Rv. Nature of the data set: minimal inhibitory concentration (antimicrobial activity). Format: cell-based. The following applies: H37RV, read-out: minimal inhibitory concentration. From the text: (§1) The unexpected biological characteristics of the novel rifamycins have been evidenced by considering the survival time after a daily administration of rifampicin and a once-a-week administration of the same dose level per os of 3-[4-(2-propenyl)-1-piperazinyl]iminorifamycin SV (hereinafter referred to as "propenyl derivative") to mice infected with Mycobacterium tuberculosis H37 Rv. […] For instance, the value of the minimal inhibitory concentration of propenyl derivative against Mycobacterium tuberculosis H37 Rv is 0.02 μg/ml while that of rifampicin is 0.5 μg/ml.

The nature of another data set: in vivo. The settings on record: mouse.
The subject of data set [2] is Mycobacterium tuberculosis H37 Rv. Nature of the data set: survival time of mice infected with Mycobacterium tuberculosis H37 Rv. The settings on record: once-a-week per os vs daily rifampicin at same dose level; total amount about 1/6. It counts as in vivo.
Description: as §1

The nature of the next data set: toxicity (LD50) in mice. The following applies: in words.
The next data set concerns Staphylococcus aureus. As to the kind of experiment: experimental Staphylococcus aureus infection in mice. It counts as in vivo. The settings on record: po. Here is the method:
In fact, propynyl derivative (i.e. 3-[4-(2-propynyl)-1-piperazinyl]iminomethylrifamycin SV) in representative experiments has shown an ED50 value of 0.20 mg/kg p.o. The toxicity is very low, the LD 50 value in mice being higher than 2000 mg/kg p.o. The new compounds are suitably administered in usual pharmaceutical combinations with conventional carriers.

In brackets after ≈: the same amount, converted by molar mass.

In the case of `C=CCN1CCN(N=Cc2c3c(O)c4c(O)c(C)c5c(c4c2O)C(=O)C(C)(OC=CC(OC)C(C)C(OC(C)=O)C(C)C(O)C(C)C(O)C(C)C=CC=C(C)C(=O)N3)O5)CC1` (stereo not shown) [propenyl derivative, 3-[4-(2-Propenyl)-1-piperazinyl]iminomethylrifamycin SV], in data set [1], the MIC is 0.02 µg/mL (≈ 0.0236 µM). Also, the LD50 was about 700 mg/kg in the data set “in vivo” (ip) and about 1500 mg/kg in the data set “in vivo” (po). The survival time result in data set [2] was “about the same survival time”.
In turn, `C#CCN1CCN(N=Cc2c3c(O)c4c(O)c(C)c5c(c4c2O)C(=O)C(C)(OC=CC(OC)C(C)C(OC(C)=O)C(C)C(O)C(C)C(O)C(C)C=CC=C(C)C(=O)N3)O5)CC1` (stereo not shown) [propynyl derivative, 3-[4-(2-Propynyl)-1-piperazinyl]iminomethylrifamycin SV] displayed an LD50 in the data set “in vivo” (po) of over 2000 mg/kg. Moreover, in “toxicity (LD50) in mice”, the toxicity result is reported as “very low”. Further, the ED50 in the data set with Staphylococcus aureus stood at 0.2 mg/kg.

Values taken from patent US4002754A, “Substituted piperazinyliminorifamycins” (Gruppo Lepetit S.p.A., priority 1975, dated 1977).
